Data as given in patent publication US11656221B2, “Methods to identify modulators of actin-binding proteins” (Regents of the University of Minnesota, priority 2019, dated 2023).
“Also recorded” adds a separate entry of the source. Read-outs that look alike come from different tables or passages of the source.

Key:
[1] = target: T1, GFP-ABD-L253P and Lifeact-mCherry on actin filaments (Homo sapiens, UniProt O15020, L253P); assay: Live-cell FRET assay after actin depolymerization (Example 2); format: cell-based; settings: 60 min treatment
T1 construct: expressed in transfected cells; host or cells: HEK293.2sus (ATCC CRL-1573.3), pcDNA3.1(+), transient
From the text: Expression constructs. FRET donor and acceptor constructs were generated using the plasmid expression vector, pcDNA3.1(+) (Invitrogen). The coding sequence for Lifeact-mCherry was PCR amplified from mCherry-Lifeact-7 (Addgene, plasmid #54491) using the oligonucleotides, […] and […], and ligated into pcDNA3.1(+) using the restriction enzymes Kpn1 and Xba1, resulting in the construct pcDNA3.1-Lifeact-mCherry. To generate GFP-ABD expression constructs, a mEGFP DNA construct with flanking Kpn1 and EcoR1 restriction sites, was synthesized (Integrated DNA Technologies). The mEGFP sequence was subcloned into pcDNA3.1(+) using Kpn1 and EcoR1 restriction enzymes, resulting the in the construct, pcDNA3.1-GFP. DNA sequences encoding the wild-type or L253P human β-III-spectrin ABD (amino acids 1-284, NCBI reference sequence NP_008877.1) were PCR amplified from pE-SUMO-ABD-WT or -L253P (Avery, 2017 PMID: 29116080) using the oligonucleotides […] and […], and inserted into pcDNA3.1-GFP using EcoR1 and Xba1 restriction enzymes. The resulting constructs, pcDNA3.1-GFP-ABD-WT and -L253P, along with pcDNA3.1-Lifeact-mCherry, were sequence verified. […]
FRET Measurement. FRET in live cells was measured using a Fluorescence Lifetime (FLT) Plate Reader (FLTPR) (Fluorescence Innovations). […]

[2] = target: T2, ternary complex consisting of GFP-ABD-L253P, Lifeact-mCherry, and actin (Homo sapiens, UniProt O15020, L253P); assay: Primary live-cell time-resolved FRET assay (GFP-ABD-L253P plus Lifeact-mCherry); format: cell-based; settings: LOPAC compounds 10 μM, 120 min
T2 construct: L252P β-III-spectrin (human) ABD residues 1-284; expressed in transfected cells; host or cells: HEK293-6E, pTT5 vector, transient

[3] = target: T3, Lifeact-mCherry binding to F-actin (Oryctolagus cuniculus, UniProt P68135); assay: F-actin and Lifeact-mCherry co-sedimentation assay; set-up: species or system New Zealand white rabbit (Oryctolagus cuniculus); settings: 10 μM
T3 construct: Actin was purified from acetone powder derived from the psoas muscle; made in house; host or cells: actin from rabbit psoas muscle; Lifeact-mCherry from E. coli, pE-SUMOpro
Method: Actin was purified from acetone powder derived from the psoas muscle of New Zealand white rabbit (Oryctolagus cuniculus). Filamentous (F)-actin was stored for up to 3 days on ice before use in binding assays. Within an hour of the binding assay, the F-actin was clarified at 100,000×g at 4° C. for 10 min prior to setting up binding assays. The L253P β-III-spectrin ABD was expressed in E. coli BL21(DE3) (Novagen). The ABD was purified and the His-SUMO tag proteolytically removed, as previously described, except size-exclusion chromatography was not performed due to the high purity of the ABD protein. Lifeact-mCherry protein was similarly prepared. A Bradford assay was performed to determine clarified F-actin and ABD protein concentrations.
F-actin and ABD binding assays were performed as previously described. In brief, binding assays used 1 μM ABD protein, 1 μM F-actin and 1-50 μM compound (as indicated) or DMSO control for a total reaction volume of 60 μL in F-buffer containing 10 mM Tris, pH 7.5, 150 mM NaCl, 0.5 mM ATP, 2 mM MgCl2, and 1 mM DTT. Following 30 min incubation at room temperature (21° C.). F-actin was pelleted using centrifugation at 100,000×g at 25° C. for 30 min. Unbound ABD in the supernatant was measured following SDS-PAGE and Coomassie blue staining in accord. In addition, control co-sedimentations assays that lacked actin were performed to test if compounds cause ABD aggregation. F-actin and Lifeact-mCherry binding assays were undertaken with 2 μM Lifeact-mCherry, 30 μM F-actin and 1-50 μM compound (as indicated) or DMSO control for a total reaction volume of 80 μL in F-buffer. For a no-actin binding control, an assay sample with no F-actin was also set up. Binding reactions were allowed to reach equilibrium at room temperature (21° C.) for 30 min and then F-actin was pelleted by centrifugation at 100,000×g at 25° C. for 30 min. The amount of unbound Lifeact-mCherry was sampled by loading 7 μL of spin supernatant on a low volume black bottom 384-well plate (Greiner). Amount of mCherry was determined by acquiring fluorescence spectrum peak intensity at ˜600 nm using a spectral unmixing plate reader (Fluorescence Innovations, Inc) equipped with a 532 nm laser (Laserglow Technologies, Ontario, Canada) for excitation, 532 nm longpass filter for emission, and PMT for emission detection. The fraction of Lifeact-mCherry bound to F-actin was determined by subtracting from one the fraction of supernatant fluorescence intensity relative to the no-actin control sample, using the following equation:
[formula] • Where Fcontrol/DMSO is the peak mCherry fluorescence of assay samples containing compound or DMSO control, and Fno-actin is the peak mCherry fluorescence of assay samples that contained no F-actin. 2.9 Trypan Blue Cell Viability Assays

HEK293-6E cells = assay: Trypan blue cell viability assay; format: cell-based; settings: 10 μM, 3 hr incubation
Method: HEK293-6E cell viability was measured using trypan blue (0.03%) staining and a Countess Automated Cell counter (Invitrogen). Non-transfected HEK293-6E cells were spun at 100×g for 5 min at 21° C., and resuspended in 10 mL of PBS. The centrifugation and resuspension were repeated twice more. Final cell concentration was 1×10^6 cells/mL. Cells were incubated with 2% DMSO, or 3-50 μM compound (as indicated) for 3 hrs at room temperature (21° C.). After addition of 100 μL of 0.06% trypan blue solution in PBS, 10 μL was loaded on a slide and injected into the cell counter, and cell viability was measured.

mammalian cells = settings: cited from earlier work
actin filaments = settings: cited from earlier work

T1 sequence (O15020 1-284 L253P): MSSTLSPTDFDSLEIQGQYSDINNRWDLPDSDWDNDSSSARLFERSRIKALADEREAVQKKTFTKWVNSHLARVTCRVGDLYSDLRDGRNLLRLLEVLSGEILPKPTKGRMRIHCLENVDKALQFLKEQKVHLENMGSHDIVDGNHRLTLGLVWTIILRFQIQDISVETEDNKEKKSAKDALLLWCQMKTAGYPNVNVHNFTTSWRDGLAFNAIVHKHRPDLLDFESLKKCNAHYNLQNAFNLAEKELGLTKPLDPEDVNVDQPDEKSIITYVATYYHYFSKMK
T2 sequence (O15020 1-284 L253P, one chain of several): as the sequence (O15020 1-284 L253P) above

| Molecule | effect on FRET between GFP-ABD-L253P and Lifeact-mCherry [1] | effect on FRET in primary screen (Hit, 4SD threshold) [2] | effect on Lifeact-mCherry binding with actin [3] | effect on HEK293-6E cell viability (HEK293-6E cells) | reported effect on cell viability (mammalian cells) | also measured |
| --- | --- | --- | --- | --- | --- | --- |
| C/C1=C/C(=O)O[C@@H]2C[C@@H](CC[C@H](C)/C=C\C=C\CC1)O[C@@](O)([C@@H]1CSC(=O)N1)C2 [latrunculin A] | significantly reduce FRET; also recorded: decrease in FRET | – | – | – | – | – |
| CCCCCCCCCCCCCCCC(=O)OC(CC(=O)[O-])C[N+](C)(C)C (racemic) [palmitoyl-DL-carnitine] | – | decrease FRET | decreased actin-Lifeact co-sedimentation; also recorded: reduce Lifeact-mCherry binding with actin | dramatically reduced cell viability; also recorded: reduces HEK293-6E cell viability | reported to reduce cell viability | – |
| Clc1ccc(C(c2ccc(Cl)cc2)n2cc[n+](CC(OCc3ccc(Cl)cc3Cl)c3ccc(Cl)cc3Cl)c2)cc1 (stereo not drawn) [calmidazolium] | – | decrease FRET | decreased actin-Lifeact co-sedimentation; also recorded: reduce Lifeact-mCherry binding with actin | dramatically reduced cell viability; also recorded: reduces HEK293-6E cell viability | reported to reduce cell viability | – |
| K255E α-actinin-4: α-actinin-4 carrying the disease mutation K255E | – | – | – | – | – | Kd (actin filaments; mutant ABD proteins): 0.046 µM |
| C/C1=C/C(=O)O[C@@H]2C[C@@H](CC[C@H](C)/C=C\CC1)O[C@@](O)([C@@H]1CSC(=O)N1)C2 [latrunculin B] | significantly reduce FRET; also recorded: decrease in FRET | – | – | – | – | – |
| wild-type: wild-type dystrophin, comparator for L212P | – | – | – | – | – | Kd (actin filaments; wild-type dystrophin, Singh et al.): ~45 µM |
